# Columns and labels:
# Type in all cases: binding
# [1] = biological target: T1, EcNFeoB (GTPase domain of Escherichia coli FeoB) (Escherichia coli, UniProt P33650, G153A); test: isothermal titration calorimetry, one-site model; conditions: read-out: Kd^** (μM) GDP
# T1 construct: soluble N-terminal GTPase domain, residues 1-270; GST fusion (pGEX-4T-1) in E. coli BL21(DE3), GST removed by thrombin, size exclusion; an alternate S150A-TEV construct (TEV-cleaved) was also made
# T1 sequence (P33650 1-270 G153A): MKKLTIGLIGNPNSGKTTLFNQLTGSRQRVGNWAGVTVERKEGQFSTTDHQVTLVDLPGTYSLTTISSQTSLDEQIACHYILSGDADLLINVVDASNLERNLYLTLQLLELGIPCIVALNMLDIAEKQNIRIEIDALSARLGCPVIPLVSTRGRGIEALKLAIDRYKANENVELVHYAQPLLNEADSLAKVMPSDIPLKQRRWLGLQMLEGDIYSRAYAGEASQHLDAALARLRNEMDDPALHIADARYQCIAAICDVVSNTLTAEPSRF
# Description: (§1) isothermal titration calorimetry, one-site model on EcNFeoB (GTPase domain of Escherichia coli FeoB)
# [2] = biological target: T2, EcNFeoB (GTPase domain of Escherichia coli FeoB) (Escherichia coli, UniProt P33650, R152A); test: isothermal titration calorimetry, one-site model; conditions: read-out: Kd^** (μM) GDP
# T2 construct: soluble N-terminal GTPase domain, residues 1-270; GST fusion (pGEX-4T-1) in E. coli BL21(DE3), GST removed by thrombin, size exclusion; an alternate S150A-TEV construct (TEV-cleaved) was also made
# T2 sequence (P33650 1-270 R152A): T1 sequence (P33650 1-270 G153A)
# Description: as §1
# [3] = biological target: T3, EcNFeoB (GTPase domain of Escherichia coli FeoB) (Escherichia coli, UniProt P33650, R154A); test: isothermal titration calorimetry, one-site model; conditions: read-out: Kd^** (μM) GDP
# T3 construct: soluble N-terminal GTPase domain, residues 1-270; GST fusion (pGEX-4T-1) in E. coli BL21(DE3), GST removed by thrombin, size exclusion; an alternate S150A-TEV construct (TEV-cleaved) was also made
# T3 sequence (P33650 1-270 R154A): T1 sequence (P33650 1-270 G153A)
# Description: as §1
# [4] = biological target: T4, EcNFeoB (GTPase domain of Escherichia coli FeoB) (Escherichia coli, UniProt P33650, S150A); test: isothermal titration calorimetry, one-site model; conditions: read-out: Kd^** (μM) GDP
# T4 construct: soluble N-terminal GTPase domain, residues 1-270; GST fusion (pGEX-4T-1) in E. coli BL21(DE3), GST removed by thrombin, size exclusion; an alternate S150A-TEV construct (TEV-cleaved) was also made
# T4 sequence (P33650 1-270 S150A): T1 sequence (P33650 1-270 G153A)
# Description: as §1
# [5] = biological target: T5, EcNFeoB (GTPase domain of Escherichia coli FeoB) (Escherichia coli, UniProt P33650, T151A); test: isothermal titration calorimetry, one-site model; conditions: read-out: Kd^** (μM) GDP
# T5 construct: soluble N-terminal GTPase domain, residues 1-270; GST fusion (pGEX-4T-1) in E. coli BL21(DE3), GST removed by thrombin, size exclusion; an alternate S150A-TEV construct (TEV-cleaved) was also made
# T5 sequence (P33650 1-270 T151A): T1 sequence (P33650 1-270 G153A)
# Description: as §1
# [6] = biological target: T1, EcNFeoB (GTPase domain of Escherichia coli FeoB); test: stopped-flow fluorescence, koff/kon from kobs versus protein concentration; conditions: 20 mM Tris pH 8.0, 100 mM NaCl, 100 mM MgCl2, 20 °C; labelled compound (mant-GMPPNP; table heading prints GMPPNP)
# Description: (§2) stopped-flow fluorescence, koff/kon from kobs versus protein concentration on EcNFeoB (GTPase domain of Escherichia coli FeoB)
# [7] = biological target: T2, EcNFeoB (GTPase domain of Escherichia coli FeoB); test: as above; conditions: 20 mM Tris pH 8.0, 100 mM NaCl, 100 mM MgCl2, 20 °C; labelled compound (mant-GMPPNP; table heading prints GMPPNP)
# Description: as §2
# [8] = biological target: T3, EcNFeoB (GTPase domain of Escherichia coli FeoB); test: as above; conditions: 20 mM Tris pH 8.0, 100 mM NaCl, 100 mM MgCl2, 20 °C; labelled compound (mant-GMPPNP; table heading prints GMPPNP)
# Description: as §2
# [9] = biological target: T5, EcNFeoB (GTPase domain of Escherichia coli FeoB); test: as above; conditions: 20 mM Tris pH 8.0, 100 mM NaCl, 100 mM MgCl2, 20 °C; labelled compound (mant-GMPPNP; table heading prints GMPPNP)
# Description: as §2
Molecule,Kd [1] [µM],Kd [2] [µM],Kd [3] [µM],Kd [4] [µM],Kd [5] [µM],Kd [6] [µM],Kd [7] [µM],Kd [8] [µM],Kd [9] [µM]
Nc1nc2c(ncn2[C@@H]2O[C@H](COP(=O)(O)OP(=O)(O)O)[C@@H](O)[C@H]2O)c(=O)[nH]1 [GDP],11 ± 2,8 ± 1,9 ± 2,2 ± 0.3,33 ± 4,–,–,–,–
mant-GMPPNP,–,–,–,–,–,17,23,43,27
